{"source": "paper PMC4225485", "about": "“The PHD1 finger of KDM5B recognizes unmodified H3K4 during the demethylation of histone H3K4me2/3 by KDM5B” (Protein & Cell, 2014)", "key": {"KDM5B-PHD1-D332A": {"molecular_target": "T1, KDM5B-PHD1-D332A (Homo sapiens, UniProt Q9UGL1, D332A)", "T1 construct": "PHDKDM5B (residues 306–360 aa); GST (N, cleaved yes); made in house", "T1 sequence (Q9UGL1 306-360 D332A)": "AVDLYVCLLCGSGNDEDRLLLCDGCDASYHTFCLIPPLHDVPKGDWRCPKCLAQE", "test": "ITC binding, PHD1 D332A mutant", "conditions": "Table S1, pH 7.5, 25°C", "procedure": "(§1) A similar PHDKDM5B construct was used for the sample required in the NMR experiments. ^13C- and ^15N-labeled PHDKDM5B were prepared in M9 medium. Site-directed mutagenesis was performed using a QuikChange site-directed mutagenesis kit (Stratagene Inc. La Jolla, California, U.S.A). All of the DNA constructs were sequenced, and the molecular weights of the recombinant proteins were verified by mass spectrometry (MALDI).\n(§2) To investigate whether the PHD1KDM5B finger and its mutants interact with unmodified or methylated H3K4 or H3K4mutants, the binding affinities of PHD1KDM5B or its mutants to H3 peptides were studied. An ITC-200 microcalorimeter (GE Healthcare) was used with a buffer containing 20 mmol/L Tris, 150 mmol/L NaCl, and 1% Triton X-100, pH 7.5 at 25°C. The reference titration of small molecules in the buffer was subtracted from the experimental data, and the data were fitted using the Origin 7.0 (OriginLab Corporation) software."}, "KDM5B-PHD1-L324A": {"molecular_target": "T2, KDM5B-PHD1-L324A (Homo sapiens, UniProt Q9UGL1, L324A)", "T2 construct": "PHDKDM5B (residues 306–360 aa); GST (N, cleaved yes); made in house", "T2 sequence (Q9UGL1 306-360 L324A)": "as the sequence (Q9UGL1 306-360 D332A) above, with L19A, A27D counted along it", "test": "ITC binding, PHD1 L324A mutant", "conditions": "Table S1, pH 7.5, 25°C", "procedure": "as §1, §2"}, "KDM5B-PHD1-S333A": {"molecular_target": "T3, KDM5B-PHD1-S333A (Homo sapiens, UniProt Q9UGL1, S333A)", "T3 construct": "PHDKDM5B (residues 306–360 aa); GST (N, cleaved yes); made in house", "T3 sequence (Q9UGL1 306-360 S333A)": "as the sequence (Q9UGL1 306-360 D332A) above, with A27D, S28A counted along it", "test": "ITC binding, PHD1 S333A mutant", "conditions": "Table S1, pH 7.5, 25°C", "procedure": "as §1, §2"}, "KDM5B-PHD1-W351A": {"molecular_target": "T4, KDM5B-PHD1-W351A (Homo sapiens, UniProt Q9UGL1, W351A)", "T4 construct": "PHDKDM5B (residues 306–360 aa); GST (N, cleaved yes); made in house", "T4 sequence (Q9UGL1 306-360 W351A)": "as the sequence (Q9UGL1 306-360 D332A) above, with A27D, W46A counted along it", "test": "ITC binding, PHD1 W351A mutant", "procedure": "as §1, §2"}, "KDM5B-PHD1-D322A": {"molecular_target": "T5, KDM5B-PHD1-D322A (Homo sapiens, UniProt Q9UGL1, D322A)", "T5 construct": "PHDKDM5B (residues 306–360 aa); GST (N, cleaved yes); made in house", "T5 sequence (Q9UGL1 306-360 D322A)": "as the sequence (Q9UGL1 306-360 D332A) above, with D17A, A27D counted along it", "test": "ITC binding, PHD1 D322A mutant", "conditions": "Table S1, pH 7.5, 25°C", "procedure": "as §1, §2"}, "KDM5B-PHD1-V311A": {"molecular_target": "T6, KDM5B-PHD1-V311A (Homo sapiens, UniProt Q9UGL1, V311A)", "T6 construct": "PHDKDM5B (residues 306–360 aa); GST (N, cleaved yes); made in house", "T6 sequence (Q9UGL1 306-360 V311A)": "as the sequence (Q9UGL1 306-360 D332A) above, with V6A, A27D counted along it", "test": "ITC binding, PHD1 V311A mutant", "conditions": "Table S1, pH 7.5, 25°C", "procedure": "as §1, §2"}, "KDM5B-PHD1-L309A": {"molecular_target": "T7, KDM5B-PHD1-L309A (Homo sapiens, UniProt Q9UGL1, L309A)", "T7 construct": "PHDKDM5B (residues 306–360 aa); GST (N, cleaved yes); made in house", "T7 sequence (Q9UGL1 306-360 L309A)": "as the sequence (Q9UGL1 306-360 D332A) above, with L4A, A27D counted along it", "test": "ITC binding, PHD1 L309A mutant", "conditions": "Table S1, pH 7.5, 25°C", "procedure": "as §1, §2"}, "KDM5B-PHD1-D345A": {"molecular_target": "T8, KDM5B-PHD1-D345A (Homo sapiens, UniProt Q9UGL1, D345A)", "T8 construct": "PHDKDM5B (residues 306–360 aa); GST (N, cleaved yes); made in house", "T8 sequence (Q9UGL1 306-360 D345A)": "as the sequence (Q9UGL1 306-360 D332A) above, with A27D, D40A counted along it", "test": "ITC binding, PHD1 D345A mutant", "conditions": "Table S1, pH 7.5, 25°C", "procedure": "as §1, §2"}, "KDM5B-PHD1-Y334A": {"molecular_target": "T9, KDM5B-PHD1-Y334A (Homo sapiens, UniProt Q9UGL1, Y334A)", "T9 construct": "PHDKDM5B (residues 306–360 aa); GST (N, cleaved yes); made in house", "T9 sequence (Q9UGL1 306-360 Y334A)": "as the sequence (Q9UGL1 306-360 D332A) above, with A27D, Y29A counted along it", "test": "ITC binding, PHD1 Y334A mutant", "conditions": "Table S1, pH 7.5, 25°C", "procedure": "as §1, §2"}, "KDM5B-PHD1-L325A": {"molecular_target": "T10, KDM5B-PHD1-L325A (Homo sapiens, UniProt Q9UGL1, L325A)", "T10 construct": "PHDKDM5B (residues 306–360 aa); GST (N, cleaved yes); made in house", "T10 sequence (Q9UGL1 306-360 L325A)": "as the sequence (Q9UGL1 306-360 D332A) above, with L20A, A27D counted along it", "test": "ITC binding, PHD1 L325A mutant", "procedure": "as §1, §2"}}}
{"smiles": "C[C@H](N)C(=O)N[C@@H](CCCNC(=N)N)C(=O)N[C@H](C(=O)N[C@@H](CCCCN)C(=O)N[C@@H](CCC(N)=O)C(=O)N[C@H](C(=O)N[C@@H](C)C(=O)N[C@@H](CCCNC(=N)N)C(=O)N[C@@H](CCCCN)C(=O)N[C@@H](CO)C(=O)O)[C@@H](C)O)[C@@H](C)O", "note": "[H3K4me0]", "values": [{"measurement": "Kd", "setting": "KDM5B-PHD1-D332A", "result": "11.3 ± 0.5", "unit": "µM"}, {"measurement": "Kd", "setting": "KDM5B-PHD1-L324A", "result": "15.3 ± 0.7", "unit": "µM"}, {"measurement": "Kd", "setting": "KDM5B-PHD1-S333A", "result": "12.9 ± 0.5", "unit": "µM"}, {"measurement": "binding affinity", "setting": "KDM5B-PHD1-W351A", "result": "non-detectable"}, {"measurement": "Kd", "setting": "KDM5B-PHD1-D322A", "result": "10.7 ± 0.5", "unit": "µM"}, {"measurement": "Kd", "setting": "KDM5B-PHD1-V311A", "result": "8.2 ± 0.3", "unit": "µM"}, {"measurement": "Kd", "setting": "KDM5B-PHD1-L309A", "result": "8.3 ± 0.5", "unit": "µM"}, {"measurement": "Kd", "setting": "KDM5B-PHD1-D345A", "result": "6.7 ± 0.3", "unit": "µM"}, {"measurement": "Kd", "setting": "KDM5B-PHD1-Y334A", "result": "12.6 ± 0.4", "unit": "µM"}, {"measurement": "binding affinity", "setting": "KDM5B-PHD1-L325A", "result": "non-detectable"}]}
